Data on 11 compounds can be found in ChEMBL document CHEMBL1201862, “PubChem BioAssay data set” (2004).

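Results reflect a 48-hour exposure of cells in 96-well plates to compound at five concentrations. The concentration for 50% growth inhibition is given as GI50.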 Active and inactive are the calls of the source. No stated cut-off is given here; in the data, active = GI50 up to about 1.1 µM and inactive = higher.

Among the test systems are 786-0; ACHN; HCT-116; HOP-62; IGROV-1; K562; NCI-H23; NCI-H460; NCI/ADR-RES; PC-3; RPMI-8226; SF-295; SK-OV-3; SW-620; UACC-257; UACC-62; UO-31; HOP-92; CAKI-1; T47D.
Common to all, as to experiment: NCI anticancer screen, dose series, 48 h

As to `CCCNC(=O)c1cc(NC(=O)c2cc(NC(=O)/C=C/c3ccccc3)c(OC)c(OC)c2)c(OC)c(OC)c1`, the GI50 in the test on 786-0 is 3.61 µM (inactive); with ACHN, 7.94 µM (inactive); in the test with HCT-116 it was 5.7 µM (inactive); with HOP-62, 4.41 µM (inactive); in the test with IGROV-1, 12.4 µM (inactive); in the test with K562, > 100 µM (inactive). The GI50 with NCI-H23 was 11.4 µM (inactive); in the test on NCI-H460, 11.8 µM (inactive); in the test with NCI/ADR-RES, 9.33 µM (inactive); in the test on PC-3 it was 6.87 µM (inactive); in the test with RPMI-8226 it was 27 µM (inactive); in the test with SF-295, 3.16 µM (inactive). Also, the GI50 with SK-OV-3 was 7.62 µM (inactive); in the test with SW-620, > 100 µM (inactive); in the test with UACC-257, 14.2 µM (inactive); in the test on UACC-62, 0.148 µM (active); in the test on UO-31, 5.6 µM (inactive).

On to `CSC1=N/C(=C\c2ccccc2)C(=O)N1CN1CCOCC1`, for which the GI50 in the test with 786-0 was 41.1 µM (inactive); in the test with ACHN, 38.9 µM (inactive); in the test on HCT-116, 39.4 µM (inactive); with HOP-62, > 100 µM (inactive); with HOP-92, > 100 µM (inactive); in the test on IGROV-1 it was 52.7 µM (inactive). The GI50 with K562 was 41.9 µM (inactive); in the test on NCI-H23, > 100 µM (inactive); in the test on NCI/ADR-RES, 17.1 µM (inactive); in the test on PC-3 it was 68.9 µM (inactive); in the test with RPMI-8226, 30.1 µM (inactive); with SF-295, > 100 µM (inactive). For the same compound, the GI50 in the test with SK-OV-3 was > 100 µM (inactive); in the test on SW-620, 41.6 µM (inactive); in the test with UACC-62 it was 34 µM (inactive); with UO-31 it was 38.3 µM (inactive).

Consider `Cc1oc2nc(N(C)C)n3nnnc3c2c1C`, for which the GI50 was 70.1 µM (inactive) in the test with 786-0; 61.9 µM (inactive) in the test on ACHN; > 100 µM (inactive) with CAKI-1; > 100 µM (inactive) with HCT-116; > 100 µM (inactive) in the test with HOP-92; > 100 µM (inactive) with IGROV-1. Also, the GI50 with K562 was > 100 µM (inactive); in the test on NCI-H23, > 100 µM (inactive); in the test with NCI/ADR-RES, > 100 µM (inactive); in the test with RPMI-8226, > 100 µM (inactive); with SF-295, > 100 µM (inactive); in the test with SK-OV-3, 85.7 µM (inactive). Moreover, the GI50 in the test on SW-620 was > 100 µM (inactive); with T47D, > 100 µM (inactive); with UACC-257 it was > 100 µM (inactive); with UACC-62, 49.9 µM (inactive); in the test on UO-31, 30.3 µM (inactive).

For `CN(C)CCSc1cc(-c2ccccc2)c2ccccc2n1`, the GI50 is 10.8 µM (inactive) in the test on 786-0; 13.5 µM (inactive) in the test on ACHN; 16.3 µM (inactive) with CAKI-1; 7.43 µM (inactive) with HCT-116; 10.3 µM (inactive) in the test with HOP-62; 12.9 µM (inactive) in the test with IGROV-1. The GI50 was 2.09 µM (inactive) in the test on K562; 10 µM (inactive) with NCI-H23; 14.9 µM (inactive) with NCI/ADR-RES; 12.2 µM (inactive) in the test on PC-3; 17.3 µM (inactive) in the test on RPMI-8226; 12.6 µM (inactive) in the test on SF-295. Further, the GI50 in the test on SK-OV-3 is 3.91 µM (inactive); in the test on SW-620 it was 6.14 µM (inactive); with T47D it was 15.4 µM (inactive); in the test on UACC-257 it was 10.4 µM (inactive); with UACC-62 it was 2.59 µM (inactive); in the test on UO-31, 10.6 µM (inactive).

Turning to `CC1(C)CC(=O)c2c([nH]c(=S)c(C#N)c2-c2ccc(Br)cc2)C1`, the GI50 with 786-0 was 78.5 µM (inactive); in the test on ACHN, 66.1 µM (inactive); with CAKI-1, 20 µM (inactive); in the test with HCT-116 it was 58.2 µM (inactive); in the test on HOP-62, 41.7 µM (inactive); in the test with HOP-92, 17.3 µM (inactive). For the same compound, the GI50 with IGROV-1 was 62.5 µM (inactive); in the test on K562 it was 43.4 µM (inactive); with NCI-H23 it was 51.1 µM (inactive); in the test on NCI-H460 it was 40.7 µM (inactive); in the test on NCI/ADR-RES it was > 100 µM (inactive); in the test on PC-3, 30.4 µM (inactive). The GI50 in the test on SF-295 was 35.7 µM (inactive); in the test with SK-OV-3, > 100 µM (inactive); in the test on SW-620, 46.9 µM (inactive); in the test with UACC-257, 52.2 µM (inactive); in the test on UACC-62 it was 32.7 µM (inactive); in the test on UO-31, 45.9 µM (inactive).

On to `O=S(=O)(c1cc(Cl)ccc1Cl)N1CCN(c2cccc(Cl)c2)CC1`, for which the GI50 in the test on 786-0, with ACHN, with CAKI-1, with HCT-116, in the test with HOP-62 and in the test on HOP-92 was > 100 µM (inactive) in each case. Besides, the GI50 is > 100 µM (inactive) in the test on IGROV-1; 67 µM (inactive) in the test with K562; > 100 µM (inactive) with NCI-H23; > 100 µM (inactive) in the test on NCI-H460; > 100 µM (inactive) in the test on PC-3; > 100 µM (inactive) in the test with RPMI-8226. Also, the GI50 in the test with SF-295, in the test on SW-620, in the test on T47D, in the test with UACC-257 and with UO-31 was > 100 µM (inactive) throughout.

`O=C1NC(=S)NC1C(Cc1ccccc1)c1ccco1` (configuration not stated): the GI50 in the test on 786-0, in the test with ACHN, in the test with CAKI-1, with HCT-116, in the test on HOP-92 and in the test with IGROV-1 was > 100 µM (inactive) each time. Moreover, the GI50 in the test on K562 is 83.4 µM (inactive); in the test with NCI-H23, > 100 µM (inactive); with NCI-H460, > 100 µM (inactive); in the test with NCI/ADR-RES it was > 100 µM (inactive); in the test on RPMI-8226, 84.9 µM (inactive); with SF-295, > 100 µM (inactive). Besides, the GI50 with SK-OV-3, in the test with SW-620, with T47D, in the test with UACC-257 and in the test on UO-31 was > 100 µM (inactive) each time.

Consider `Cc1ccc(Cc2c(=O)[nH]nc3ccccc23)cc1`, for which the GI50 with 786-0 was > 100 µM (inactive); with ACHN, > 100 µM (inactive); with CAKI-1 it was > 100 µM (inactive); with HCT-116, > 100 µM (inactive); in the test on HOP-62, > 100 µM (inactive); in the test with HOP-92, 89.7 µM (inactive). Further, the GI50 with IGROV-1 is > 100 µM (inactive); with K562, > 100 µM (inactive); with NCI-H23 it was > 100 µM (inactive); in the test with NCI-H460 it was > 100 µM (inactive); in the test on RPMI-8226 it was > 100 µM (inactive); with SF-295, 89.5 µM (inactive). The GI50 is > 100 µM (inactive) in the test on SK-OV-3; > 100 µM (inactive) in the test on SW-620; > 100 µM (inactive) in the test on UACC-257; > 100 µM (inactive) in the test on UACC-62; 58.3 µM (inactive) in the test with UO-31.

Turning to `O=C(CC1C(=O)Nc2ccccc2[S+]1[O-])Nc1cccc(Cl)c1` (configuration not stated), the GI50 in the test with 786-0 is 37.2 µM (inactive); in the test with ACHN, 33.7 µM (inactive); in the test on CAKI-1 it was 20.7 µM (inactive); in the test on HCT-116 it was 31.6 µM (inactive); in the test with HOP-62, 25.5 µM (inactive); with HOP-92, 19.5 µM (inactive). The GI50 with IGROV-1 is > 37.5 µM (inactive); with K562, 6.61 µM (inactive); with NCI-H23 it was > 44.9 µM (inactive); in the test with NCI-H460 it was > 44.6 µM (inactive); in the test on NCI/ADR-RES, 18.5 µM (inactive); in the test with RPMI-8226, 7.98 µM (inactive). Also, the GI50 in the test on SF-295 was 41.9 µM (inactive); with SK-OV-3, 31.3 µM (inactive); in the test with SW-620 it was > 48 µM (inactive); in the test on T47D it was 11.2 µM (inactive); with UACC-257, > 50.5 µM (inactive); in the test on UACC-62, > 43.1 µM (inactive). Besides, in the test on UO-31, the GI50 is 25.1 µM (inactive).

Take `Cc1cccc(N2C(=O)C3c4[nH]c5ccccc5c4C4CCC(C(C)(C)C)CC4C3C2=O)c1C` (configuration not stated): the GI50 with 786-0 was 38.7 µM (inactive); in the test with ACHN it was > 100 µM (inactive); with CAKI-1, > 100 µM (inactive); with HCT-116, 28.7 µM (inactive); with HOP-62 it was > 100 µM (inactive); with HOP-92 it was > 100 µM (inactive). Also, the GI50 in the test with IGROV-1, with K562, in the test on NCI-H23, with NCI-H460, with NCI/ADR-RES and in the test on PC-3 was > 100 µM (inactive) throughout. Further, the GI50 was > 100 µM (inactive) in the test with RPMI-8226; > 100 µM (inactive) with SF-295; > 100 µM (inactive) in the test on SK-OV-3; 40 µM (inactive) in the test on SW-620; > 100 µM (inactive) with UACC-257; > 100 µM (inactive) with UACC-62. The GI50 in the test with UO-31 is > 100 µM (inactive).

Regarding `CCOc1ccc(NCC2CC/C(=C\c3ccc(Cl)cc3)C2=O)cc1` (configuration not stated), the GI50 was 13 µM (inactive) with 786-0; > 40.6 µM (inactive) with ACHN; > 45.1 µM (inactive) with CAKI-1; 31.1 µM (inactive) in the test with HCT-116; > 100 µM (inactive) in the test on HOP-62; 20.3 µM (inactive) with HOP-92. Moreover, the GI50 with IGROV-1 was > 36 µM (inactive); in the test with K562, 6.81 µM (inactive); in the test on NCI-H23 it was > 48.9 µM (inactive); with NCI-H460, 89.3 µM (inactive); in the test on RPMI-8226, 2.54 µM (inactive); with SF-295 it was > 100 µM (inactive). Besides, the GI50 is > 100 µM (inactive) in the test with SK-OV-3; 17.1 µM (inactive) in the test with SW-620; > 38.9 µM (inactive) in the test with UACC-257; > 40.7 µM (inactive) in the test with UACC-62; > 42.5 µM (inactive) in the test with UO-31.
